Experimental data published in paper PMC7261835, “New Brilliant Blue G Derivative as Pharmacological Tool in Retinal Surgery” (Frontiers in Pharmacology, 2020).

Columns and labels:
[1] = system: purinergic ionotropic P2X7 receptor; set-up: method as in Bartlett et al., 2014; settings: ref Bartlett et al., 2014; cited from earlier work
[2] = Ex vivo model of vitreoretinal surgery, dye quantification in ILM by HPLC; set-up: species or system swine; settings: porcine eye ex vivo, 40 µl, 30 s
Text: (§1) Ex vivo model of vitreoretinal surgery has been previously reported for evaluation of indocyanine green ILM staining properties ([Nakamura et al., 2003]). We carried out on swine eyes the same procedure previously reported on primates, with slight modifications. The following formulations have been tested in the ex vivo model of vitreoretinal surgery: Brilliant PeelTM (0.025% Brilliant Blue G BBG; Fluoron, Ulm, Germany); ILM-BlueTM (0.025% Brilliant Blue G; Dutch Ophthalmic Research Center (International) […], Italy); View-ILM® (0.03% methyl-Brilliant Blue […], Ponte San Nicolò-Padova, Italy); PBB® (0.05% Pure benzyl-Brilliant Blue G; Alfa-Instruments, Casoria, Italy). […] The levels of the dye molecules were quantified by means of HPLC analysis. […] The dried residue was reconstituted in 100 μl of mobile phase by vortexing for 120 s, filtered again on 0.45 μm filters, and, finally, 10-20 μl aliquots were injected into the chromatographic apparatus (each sample was analyzed in triplicate). […] BBG, Me-BBG, and PBB® were analyzed using three different isocratic ternary mobile phases consisting of (A) acetonitrile, (B) methanol, and (C) triethylamine 0.3% (v/v) in water (pH adjusted to 3.0 with trifluoroacetic acid) with different proportions (A:B:C) as follows: BBG 49:5:46 (v/v/v); Me-BBG 54:5:41 (v/v/v); PBB® 62:5:33 (v/v/v). […]

[3] = Ex vivo model of vitreoretinal surgery, dye quantification in retina by HPLC; set-up: species or system swine; settings: porcine eye ex vivo, 40 µl of 0.05% PBB formulation, removed after 30 s, after ILM peeling
Text: as §1

[4] = system: proteins (fibronectin proteolytic fragment 45 kDa, E. coli beta-galactosidase, bovine serum albumin, chicken ovalbumin, equine cytochrome C); test: Dye protein affinity assay: SDS-PAGE staining intensity, densitometry; type: binding; settings: SDS-page protein bands, dyes 0.025% in fixative; compared to BBG and Me-BBG; p < 0.05
Description: In order to have the same dye/protein molar ratio for dye protein affinity assay, a set of molecular weight standards was obtained by mixing 430 nmol of the following proteins: i. fibronectin proteolytic fragment 45 kDa; ii. E. coli beta-galactosidase 116.3 kDa; iii. bovine serum albumin 66.5 kDa; iv. chicken ovalbumin 42.7 kDa; v. equine cytochrome C 12.3 kDa. Polyacrylamide gel electrophoresis was carried out loading the molecular weight standard in a 9% precast gels (Biorad), as triplicates on separate lanes. Gel electrophoresis was carried out at 20V for 60–90 min in denaturing conditions. After runs, each lane was cut and soaked overnight in a different staining solution, consisting of dyes dissolved at 0.025% in gel fixative solution (40% methanol, 20% acetic acid). Thereafter, gel lanes were decolored in the fixative solution without dyes, until the background stain reached the minimum level compared to stained protein bands. Images were collected with a scanner at 300 dpi, 16M colors. Densitometric analysis was done using the software ImageJ ([Rueden et al., 2017]). LogD values (pH 7.4) were calculated in silico using ACD/Labs software (version 11.1 2008, ACD Labs). […]

Row | Compound | P2X7 receptor antagonism [1] | dye content in ILM compared to Brilliant Peel formulation (BBG) [2] | fold increase of ILM dye levels compared to Me-BBG (View ILM) formulation ([2]; p < 0.05) | dye levels in the retina [3] | Protein binding quantified as staining intensity (% staining, % of control BBG) [4]
1 | CCOc1ccc(Nc2ccc(/C(=C3C=C/C(=[N+](/CC)Cc4cccc(S(=O)(=O)[O-])c4)C=C/3C)c3ccc(N(CC)Cc4cccc(S(=O)(=O)O)c4)cc3C)cc2)cc1 [Entry 1, Brilliant Blue G] | potent selective non-competitive antagonist | – | – | – | –
2 | CCOc1ccc(N(Cc2ccccc2)c2ccc(C(=C3C=CC(=[N+](CC)Cc4cccc(S(=O)(=O)[O-])c4)C=C3C)c3ccc(N(CC)Cc4cccc(S(=O)(=O)O)c4)cc3C)cc2)cc1 [Entry 7, pure benzyl-Brilliant Blue G] | – | higher, even though not statistical significant | 6.0 fold | 52 ng/mg | higher protein affinity (% staining) compared to BBG and Me-BBG
